Data on 53 compounds can be found in PMC3409115, “Diverse Inhibitor Chemotypes Targeting Trypanosoma cruzi CYP51” (PLoS Neglected Tropical Diseases, 2012).

As usually defined, the EC50 is the concentration needed to bring the measured effect to its halfway point.

T1 sequence (Q7Z1V1 15-481, looked up, natural form): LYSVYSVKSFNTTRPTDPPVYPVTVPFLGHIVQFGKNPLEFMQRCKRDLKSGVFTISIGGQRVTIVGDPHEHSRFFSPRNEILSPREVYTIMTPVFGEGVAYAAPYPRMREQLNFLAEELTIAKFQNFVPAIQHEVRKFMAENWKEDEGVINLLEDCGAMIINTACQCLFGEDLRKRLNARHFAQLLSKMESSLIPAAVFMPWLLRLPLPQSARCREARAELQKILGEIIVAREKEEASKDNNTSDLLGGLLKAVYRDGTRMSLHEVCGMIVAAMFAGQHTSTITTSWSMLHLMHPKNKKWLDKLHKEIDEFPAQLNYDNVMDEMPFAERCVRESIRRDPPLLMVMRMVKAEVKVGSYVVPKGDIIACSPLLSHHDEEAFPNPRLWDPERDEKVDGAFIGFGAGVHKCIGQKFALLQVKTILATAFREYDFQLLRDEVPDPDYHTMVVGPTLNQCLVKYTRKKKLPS

One test concerns the target T1, T. cruzi CYP51 (Trypanosoma cruzi, UniProt Q7Z1V1).
T1 construct: had the first 21 residues upstream of K22 replaced with the fragment MAKKKKK; His6 (C); made in house
As to the kind of experiment: HTS spectral-mode binding screen, type II difference spectra scored 0-5. The conditions noted are these: spectral mode, four serial dilutions 2 µM to 12.5 µM, 2 µM CYP51.
`Cc1ccc(C)c(CN2CCCCC2c2cccnc2)c1` (stereo not shown) [Compound 48] registered an HTS binding score of 4. Still for that read-out and setting: the figure for `O=C(Cn1ccnc1)c1ccc(Cl)cc1Cl` [Compound 26] is 2; for `Cc1ccc(C)c(OCCCCn2ccnc2)c1` [Compound 17] it is 4. Still for that read-out and setting: the figure for `CC1=NN(C(=O)COc2ccccc2C)C(O)(c2cccnc2)C1` (stereo not shown) [Compound 83] is 4; for `COc1ccc(NC(=O)C2=C(C)Nc3nc(-c4ccccc4)nn3C2c2ccncc2)cc1` (stereo not shown) [Compound 166] it is 5. On the same count and under the same terms, under `O=S(=O)(NCc1csc(-c2cccnc2)n1)c1ccc(Br)cc1` [Compound 149] stands 5; under `O=C(CSCc1c(Cl)cccc1Cl)NCc1cccnc1` [Compound 102], 4; under `COc1cc(NS(=O)(=O)c2ccc(Nc3nc(-c4cccnc4)cs3)cc2)nc(OC)n1` [Compound 177], 4. The compound `O=C(Nc1ccncc1)c1ccc(NS(=O)(=O)c2cccc(Cl)c2)cc1` [Compound 135] displayed an HTS binding score of 4. Same read-out and setting: the figure for `O=C(NCc1cccnc1)c1cc2nc(-c3ccco3)cc(C(F)(F)Cl)n2n1` [Compound 143] is 5; for `O=C(NCc1ccncc1)C(Sc1ccccc1)c1ccccc1` (stereo not shown) [Compound 93] it is 4; for `c1cc(-c2nnn(CCOCCn3nnc(-c4ccncc4)n3)n2)ccn1` [Compound 117] it is 4.

With `CC(C)c1nnc(N2C(=O)c3oc4ccccc4c(=O)c3C2c2cccnc2)s1` (stereo not shown) [Compound 144], the HTS binding score was found to be 4. Same read-out and setting: under `COc1cc(OC)cc(-c2cc3nc(C)c(CCC(=O)NCc4cccnc4)c(C)n3n2)c1` [Compound 171] stands 5; under `COc1cccc(/C=C/c2ccncc2)c1OC` [Compound 24], 2; under `O=C(NCc1cccnc1)c1cc2c(=O)oc3ccccc3c2s1` [Compound 95], 5. On the same count and under the same terms, under `CCOC(=O)c1c(C)n(-c2ccc(C)cc2)c2ccc(OCC(O)Cn3ccnc3)cc12` (stereo not shown) [Compound 165] stands 4; under `COc1ccc2nc3oc(C(=O)NCc4cccnc4)cc3cc2c1` [Compound 90], 5. On the same count and under the same terms, the figure for `O=C(Cn1nc(-c2ccc(Cl)cc2)c2ccccc2c1=O)NCc1cccnc1` [Compound 145] is 4. As to `COc1ccc(-c2nc(CSCC(=O)NCc3cccnc3)c(C)o2)cc1` [Compound 133], the HTS binding score is on record as 4. The same measure, in the same setting: the figure for `N=C(NOC(=O)c1ccc(Br)o1)c1ccncc1` [Compound 69] is 4; for `Cc1c(C(=O)Nc2ccncc2)sc2nc(-c3ccccc3)cn12` [Compound 92] it is 4; for `Cc1sc2nc(SCC(=O)NCCCn3ccnc3)nc(O)c2c1C` [Compound 127] it is 4.

`O=C(NCCCn1ccnc1)c1ccccc1Br` [Compound 66] displayed an HTS binding score of 4. Turning to `CC1=C(C(=O)Nc2ccc(F)cc2F)C(c2cccnc2)C2=C(O)CC(C)(C)CC2=N1` (stereo not shown) [Compound 159], the HTS binding score is given as 4.

Consider `O=S(=O)(Nc1ccc(Cc2ccncc2)cc1)c1ccc(Br)cc1` [Compound 142], for which the HTS binding score is listed as 4. On the same count and under the same terms, the figure for `Cc1ccc(S(=O)(=O)NCCCOC(=O)Nc2ccncc2)cc1` [Compound 110] is 5. Regarding `O=c1c2cnn(-c3ccc(Cl)cc3)c2ncn1Cc1cccnc1` [Compound 98], the HTS binding score came out at 5.

`O=C(CN(Cc1ccccc1)S(=O)(=O)c1ccccc1)NCc1ccncc1` [Compound 139] came in with an HTS binding score of 5.

For `O=C(CSc1nc(-c2cccs2)cc(C(F)(F)F)n1)NCc1ccncc1` [Compound 150], the HTS binding score was determined as 4.

`Cc1ccc(NC(=O)C23CC4CC(C2)CC(n2cncn2)(C4)C3)c(C)c1` [Compound 111] yielded an HTS binding score of 5. The compound `COc1cccc(-c2noc(C(=O)NCCCn3ccnc3)n2)c1` [Compound 84] returned an HTS binding score of 4.

`Cn1c(SCc2nc(-c3ccc(Cl)cc3)no2)nnc1-c1ccncc1` [Compound 134] returned an HTS binding score of 5. On to `C=CCn1c(=O)c(C(=O)NCc2ccncc2)c(O)c2ccccc21` [Compound 94], for which the HTS binding score worked out at 4.

As to `Cc1ccc(S(=O)(=O)N(CC(=O)Nc2cccnc2)c2cccc(C(F)(F)F)c2)cc1` [Compound 172], the HTS binding score worked out at 4. The same measure, in the same setting: the figure for `Cc1c(C(=O)N2CCCCC2c2cccnc2)sc2nc3n(c(=O)c12)CCCCC3` (stereo not shown) [Compound 157] is 4; for `O=C(Cc1cccc(O)c1)Nc1cc(-c2ccncc2)cnc1O` [Compound 80] it is 4; for `CCc1nc(SCc2cccnc2)c(C#N)c(C(F)(F)F)c1C` [Compound 97] it is 5. Same read-out and setting: the figure for `Cc1n[nH]c(C)c1CCc1nc2c3ccccc3nc(NCc3cccnc3)n2n1` [Compound 140] is 5. On the same count and under the same terms, under `CC(NC(=O)C12CC3CC(C1)CC(n1cncn1)(C3)C2)C12CC3CC(CC(C3)C1)C2` (stereo not shown) [Compound 148] stands 4; under `COc1cccc(C2C(C(=O)Nc3cccnc3)=C(C)Nc3nc(-c4cccc(C)c4)nn32)c1OC` (stereo not shown) [Compound 182], 4; under `Cc1ccc(Sc2c(C(=O)NCc3cccnc3)[nH]c3ccccc23)cc1` [Compound 123], 4. In the case of `C=CCOc1ccc(C2c3c(-c4ccccc4O)n[nH]c3C(=O)N2Cc2ccncc2)cc1OCC` (stereo not shown) [Compound 181], the HTS binding score was 5.

As to `CC(C)N(CCc1ccncc1)/C(S)=N/C1CCCCC1` [Compound 64], the HTS binding score was 5. The same measure, in the same setting: the figure for `c1ccc(-c2cc(NCCCn3ccnc3)n3c(n2)nc2ccccc23)cc1` [Compound 119] is 4; for `CC1=C(C(=O)Nc2cccnc2)C(c2cccc(O)c2)n2nc(SCc3ccccc3)nc2N1` (stereo not shown) [Compound 179] it is 4. On the same count and under the same terms, under `O=C(CCCCCN1C(=O)c2cccc3cccc(c23)C1=O)NCc1cccnc1` [Compound 141] stands 4. On the same count and under the same terms, the figure for `O=C(c1cc(-c2ccncc2)nc2ccccc12)N1CCCCC1` [Compound 76] is 5.

For `O=C(Nc1ccc(F)cc1)c1ccc2c(c1)C(=O)N(Cc1cccnc1)C2=O` [Compound 125], the HTS binding score turned out to be 4. The same measure, in the same setting: the figure for `CC1=C(C(=O)OC2CCCC2)C(c2ccncc2)C2=C(O)CC(C)(C)CC2=N1` (stereo not shown) [Compound 129] is 4; for `CC1Cc2cc(C(=O)C3=C(O)C(=O)N(Cc4cccnc4)C3c3cccs3)ccc2O1` (stereo not shown) [Compound 164] it is 4.

The test is the same for the next values; noted with them: type II difference spectra scored 0-5; second highest rated hit compound cluster.
`CCO/C(O)=C1/C(C)=NC2=C(C(=O)CC(c3ccccc3)C2)C1c1cccnc1` (stereo not shown) [Compound 28]: the HTS binding score amounted to 4.

The next test has as its system T. cruzi-infected skeletal myoblasts (intracellular amastigotes). As to the kind of experiment: Hit cross-validation in T. cruzi-infected mammalian cells (image-based assay). The format is cell-based, Trypanosoma cruzi. The conditions noted are these: Trypanosoma cruzi, Myoblast, 72 h, T. cruzi-infected myoblasts, 72 h treatment; read-out: EC50 against T. cruzi parasites in HTS assay used to rank order the hits. Here is the method:
Bovine embryo skeletal muscle cells or mouse C2C12 myoblasts (ATCC#CRL-1772) used in the cross-validation assay, were cultivated respectively in RPMI 1640 medium supplemented with 5% horse serum and Dulbecco's Modified Eagle's Medium H-21 containing 4.5 g/l glucose (DMEM H-21) (Cell Culture Facility, UCSF), supplemented with 5% fetal bovine serum (FBS) (Sigma Chemical Co., St. Louis, MO, USA), 25 mM HEPES, 2 mM L-glutamine, 100 U/ml penicillin, 100 µg/ml streptomycin. T. cruzi CAI-72 trypomastigotes were obtained from supernatant of infected cultures 4 to 7 days post-infection. Cultures were maintained at 37°C in an atmosphere of 5% CO2. To harvest parasites, the supernatant of infected cultures containing released trypomastigotes was collected and centrifuged at 600 rpm for 5 min to remove cell debris; the pellet was then discarded and the trypomastigotes remaining in the media were concentrated by spinning the culture tubes at 3300 rpm for 15 minutes. The parasite pellet was re-suspended in 2–5 ml of fresh media. Trypomastigote concentration was determined using a Neubauer hemocytometer.
Compound cross-validation in T. cruzi infected skeletal myoblasts (bovine embryo skeletal muscle or C2C12 lineage) was performed according to the protocol adapted from Engel and co-authors. Compounds stored as 10 mM stocks in DMSO were freshly diluted immediately prior to use. […] To prepare plates for the assay, skeletal myoblasts cultured in […] flasks were washed once with phosphate buffered saline (PBS) and then incubated with 0.25% trypsin in PBS for 1–3 minutes for detachment. The trypsin solution was removed and myoblasts were released from the flask bottom. Fresh medium was added and cell concentration was determined using a Neubauer hemocytometer. Myoblasts in 50 µl of culture medium were transferred to the clear-bottom wells of black 96-well plates (Greiner Bio-One, #655090) at a density of 1500 cells/well and infected with 50 µl trypomastigote culture at 7500 parasites/well (1∶5 ratio). The cells were allowed to adhere and spread for 24 h in the incubator before the media was removed and 100 µl of fresh medium containing 0, 0.04, 0.12, 0.37, 1.10, 3.30 or 10 µM of test compound was added to each well, followed by 72 h incubation at 37°C in an atmosphere of 5% CO2. Posaconazole was used as a positive control at the same concentrations as the test compounds. The cells were then fixed by adding 100 µl/well of 8% formaldehyde in PBS, resulting in a 4% working concentration of formaldehyde. To stain the nucleus of the host cell and the nucleus and kinetoplast of parasites, cell membranes were first permeabilized by washing once with 100 µl of 0.1% Triton X-100 in PBS, then treated for 1 h with 0.2 µg/ml of the fluorescent DNA dye, 4,6-diamidino-2-phenylindole (DAPI), followed by one wash with PBS. The fixed plates were kept at 4°C and protected from light until images were acquired.
Plates were allowed to equilibrate to room temperature and images were acquired by the IN Cell Analyzer 2000 (GE Healthcare) with a 20× objective, 5 fields per well, with 350/50 nm and 460/40 nm fluorescent excitation and emission filters. In the absence of drug cytotoxicity, at least 800 cells were imaged and counted per well. The images were processed and analyzed by IN Cell Analyzer Developer 1.6 software. The size parameters used to segment host and parasite organelles were 125 µm^2 for host nucleus, and 1–2 µm^2 for parasite nucleus/kinetoplast. Since DAPI also strongly stains host heterochromatin regions that display as shapes resembling parasites ( Figure 3 ), particles co-localized to host nuclei were excluded from quantification, while parasite aggregates near the host nucleus were counted as infected cells.
As to `Cc1ccc(C)c(OCCCCn2ccnc2)c1` [Compound 17], the EC50 came to 2.36 µM.

Turning to `CCO/C(O)=C1/C(C)=NC2=C(C(=O)CC(c3ccccc3)C2)C1c1cccnc1` (stereo not shown) [Compound 28], the EC50 came to 5 µM.

Still in this test, the particulars now being: Trypanosoma cruzi, Myoblast, 72 h, read-out: EC50 against T. cruzi parasites in HTS assay used to rank order the hits.
In the case of `Cc1ccc(C)c(CN2CCCCC2c2cccnc2)c1` (stereo not shown) [Compound 48], the EC50 was 8.24 µM. The same measure, in the same setting: under `O=C(Cn1ccnc1)c1ccc(Cl)cc1Cl` [Compound 26] stands 4.53 µM. Regarding `CCCC/N=C(\S)N1CCn2cccc2C1c1cccnc1` (stereo not shown) [Compound 30], the EC50 is 6.33 µM. `COc1cccc(/C=C/c2ccncc2)c1OC` [Compound 24]: the EC50 amounted to 2.98 µM.
